# Assay results reported in patent publication US10000739B2, “Method and culture medium for improving pluripotent stem cell differentiation inducing efficiency” (NATIONAL UNIVERSITY CORPORATION KUMAMOTO UNIVERSITY, priority 2010, dated 2018).
# Where two headings read alike, the source gives them in different places.
# Key:
# human iPS cells [1] = test: Differentiation of human iPS cells into endoderm cells on mmcM15 cells, immunofluorescent staining for Sox17 and Oct3/4; format: cell-based; settings: staining Day 10, vs control culture medium
# Description: (§1) In performing a whole mount immunohistochemistry test, ES cells or iPS cells were placed on Nunc Theranox Colerslips 24-well type (Nunc). Cells were fixed at room temperature for 20 minutes in 4% paraformaldehyde, and washed sufficiently with 0.1% Tween-containing phosphate buffered saline (PBS-T). In PBS containing 1% TritonX-100, the cells were infiltrated at room for 10 minutes, and incubated for 1 hour in a blocking solution (×5 Blocking One, Nacalai Tesque), then, primary antibodies in the blocking solution were added to the sample, and incubated at 4° C. overnight. The sample was washed sufficiently with PBS-T, and mounted with PermaFluor Aqueous Mounting culture medium (IMMUNON). A confocal image was obtained using Leica Spectral Confocal Scanning System, TCS-SP2 (Leica).
# (§2) Antibodies used for detection are as described below. Rabbitanti-α-fetoprotein (AFP, Dako), goat anti-albumin (Sigma), rabbit anti-Pdx1 (Chemicon), mouse anti-Oct3/4 (Santa Cruz), goat anti-Sox17 (R&D). As secondary antibodies, Alexa568-labeled goat anti-rabbit antibody and donkey anti-goat antibody, and Alexa488-labeled goat anti-mouse antibody and goat anti-rabbit antibody, donkey anti-goat antibody (Molecular Probes) were used. Cells were counter-stained with DAPI (Roche). The numbers of Sox17 and Oct3/4 positive cells were quantified using ImageXpress (Molecular Devices Corporation).
# Differentiation of human iPS cells into endoderm cells was induced using endoderm differentiation culture media deprived of one amino acid for each culture medium. For induction of differentiation into endoderm cells, an endoderm differentiation inducing method using mmcM15 cells was used (see, non-patent document 6).
# As the culture medium, the following media were used depending on the culturing period. From initiation of culturing (Day 0) until Day 6 or Day 8 of culturing, PRMI 1640 culture medium (Invitrogen) containing 50 units/ml penicillin and 50 μg/ml streptomycin (GIBCO), 2 mM L-glutamine (GIBCO), 100 μM β-mercaptoethanol (Sigma), non-essential amino acid (GIBCO), 100 ng/ml activin (R&D Systems) and B27 culture medium additive (Invitrogen) added was used as an endoderm differentiation culture medium.
# From Day 6 or Day 8 until Day 10, amino acid-deprived culture media obtained by removing one amino acid from PRMI 1640 culture medium containing 50 units/ml penicillin and 50 μg/ml streptomycin, 2 mM L-glutamine, 100 μM β-mercaptoethanol, 100 ng/ml activin and B27 culture medium additive added, or a culture medium not deprived of an amino acid (control culture medium) was used as an endoderm differentiation culture medium.
# Specifically, mmcM15 cells were seeded as supporting cells on a gelatin-coated 96-well plate. Human iPS cells were treated with Y27632 (10 μM) from 24 hours before seeding, and peeled using 0.25% trypsin. The peeled human iPS cells were seeded on mmcM15 cells at a cell concentration of 1×10^4 cells/well. The seeded human iPS cells were cultured for 24 hours under 37° C. and 5% CO2 in ES culture medium (ReproStem, ReproCell) containing 10 μM Y27632 and 5 ng/ml bFGF added. After 24 hours, cells were washed once with PBS, then, the culture medium was changed to an endoderm differentiation culture medium (Day 0). Until Day 6 or Day 8 of culturing, the endoderm differentiation culture medium was changed every other day, and human iPS cells were cultured under 37° C. and 5% CO2. On Day 6 or Day 8, the culture medium was changed to an amino acid-deprived culture medium or a control culture medium. Human iPS cells were cultured until Day 10 of culturing using an amino acid-deprived culture medium or a control culture medium. On Day 10, human iPS cells were subjected to immunofluorescent staining, and the proportions of positive cells for an endoderm differentiation marker (Sox17) and an undifferentiation marker (Oct3/4) were quantitatively analyzed. The proportion of the positive cells based on those stained with DAPI was calculated.
# human iPS cells [2] = test: Addition of methionine metabolites to methionine-deprived or methyl donor-deprived culture medium, Oct3/4 and Sox17 positive cells counted; format: cell-based; settings: for effect of reducing Oct3/4 positive cells owing to methionine deprivation: added to methionine-deprived culture medium (ΔMet) Day 8 to Day 10; for effect of reducing Oct3/4 positive cells: added to methyl donor-deprived culture medium (ΔMD) Day 8 to Day 10
# Description: For investigating an influence of a methionine and methyl donor-deprived culture medium on differentiation into endoderm cells, a culture medium was deprived of methionine and methyl donors on Day 8 of differentiation, and cells were cultured until Day 10 and the numbers of Oct3/4 and Sox17 positive cells were evaluated by antibody staining. Specifically, mmcM15 cells were seeded as supporting cells on a gelatin-coated 96-well plate. Human iPS cells were treated with Y27632 (10 μM) from 24 hours before seeding, and peeled using 0.25% trypsin. The peeled human iPS cells were seeded on mmcM15 cells at a cell concentration of 1×10^4 cells/well. The seeded human iPS cells were cultured for 24 hours under 37° C. and 5% CO2 in ES culture medium containing Y27632 and bFGF added. After 24 hours, the culture medium was changed to an endoderm differentiation culture medium (Day 0). The endoderm differentiation culture medium was changed every other day and human iPS cells cultured under 37° C. and 5% CO2 from the day of initiation of culture (Day 0) to Day 8. On Day 8, the culture medium was changed to various culture media. One obtained by removing […]⋅folate⋅vitamin B12⋅betaine⋅choline from the culture medium was used as a methyl donor-deprived culture medium. Human iPS cells were cultured until Day 10 using various culture media, and Oct3/4 and Sox17 positive cells were counted.
# It is known that methionine is metabolized to give cysteine (Cys). […] In the figure, δMD denotes a culture medium not containing methionine, folic acid, vitamin B12, betaine and choline as a methyl donor.
# human iPS cells [3] = system: human iPS cells
# Description: as §1, §2
# The methionine addition concentration between Day 8 and Day 10 was […], 0.1, 1.0, 5.0, 10.0, 20.0, 50.0, 100, 200 and 500 μM.
# On Day 10, the culture medium was changed to a liver differentiation culture medium ([…] containing 10% KSR, 2000 mg/l D-glucose, 50 units/ml penicillin and 50 μg/ml streptomycin, 2 mM L-glutamine, 100 μM β-mercaptoethanol, […] human recombinant HGF and 1 μM dexamethasone (hereinafter, referred to as “2000KSR-DMEM culture medium”)), and cultured under 37° C. and 5% CO2 until Day 20. During Day 10 to Day 20, the culture medium was changed every other day. On Day 20, human iPs cells were subjected to immunofluorescent staining, and the proportions of Oct3/4 positive cells and AFP positive cells were compared for every methionine concentration.
# On Day 10, the culture medium was changed to a liver differentiation culture medium (2000KSR-DMEM culture medium), and human iPS cells were cultured under 37° C. and 5% CO2 until Day 30. During Day 10 to Day 30, the culture medium was changed every other day.
# human iPS cells [4] = system: human iPS cells; remark: listed apart in the source
# Description: For investigating an influence of a proline-added differentiation culture medium on differentiation into hepatocytes, differentiation of human iPS cells into liver precursor cells was induced using a liver differentiation culture medium containing proline added at a concentration of 1 mM.
# On a gelatin-coated 96-well plate, mmcM15 cells were seeded as supporting cells. Human iPS cells were treated with Y27632 (10 μM) from 24 hours before seeding, and peeled using 0.25% trypsin. The peeled human iPS cells were seeded on mmcM15 cells at a cell concentration of 1×10^4 cells/well. The seeded human iPS cells were cultured for 24 hours under 37° C. and 5% CO2 in ES culture medium containing Y27632 and bFGF added. After 24 hours, the culture medium was changed to an endoderm differentiation culture medium (Day 0).
# In the same manner as in Example 3, the endoderm differentiation culture medium was changed every other day and human iPS cells were cultured under 37° C. and 5% CO2, from the day of initiation of culturing (Day 0) to Day 8.
# On Day 10, the culture medium was changed to a liver differentiation culture medium (2000KSR-DMEM culture medium, control culture medium) or Pro-containing 2000KSR-DMEM culture medium obtained by further adding 1 mM proline to a control culture medium, and human iPS cells were cultured until Day 19 under 37° C. and 5% CO2. During Day 10 to Day 19, the culture medium was changed every other day. On Day 19, human iPS cells were subjected to immunofluorescent staining with an anti-Oct3/4 antibody and an anti-AFP antibody.
# [5] = amino acid-deprived endoderm differentiation culture medium Day 6 to Day 10
# [6] = amino acid-deprived endoderm differentiation culture medium Day 8 to Day 10
# [7] = methionine 0 μM to 0.1 μM Day 8 to Day 10, Day 20, FIG. 7C
# [8] = methionine 1 μM to 20 μM Day 8 to Day 10, Day 20, FIG. 7C
# [9] = methionine 50 μM or more Day 8 to Day 10, Day 20, FIG. 7C
# [10] = Day 19, methionine deprivation Day 8 to Day 10 and/or 1 mM proline Day 10 to Day 19, vs control group
structure (smiles),measurement,setting,value
"N=C(N)NCCC[C@H](N)C(=O)O [Arg, arginine]",Oct3/4 positive cell ratio,human iPS cells [1]; [5],decreased
same,Oct3/4 positive cell ratio,human iPS cells [1]; [6],remarkably decreased
same,Sox17 positive cell ratio,human iPS cells [1]; [6],increased
"N[C@@H](CS)C(=O)O [Cys, cysteine]",Oct3/4 positive cell ratio,human iPS cells [1]; [5],decreased
same,Oct3/4 positive cell ratio,human iPS cells [1]; [6],remarkably decreased
same,Sox17 positive cell ratio,human iPS cells [1]; [6],increased
same,effect of reducing Oct3/4 positive cells owing to methionine deprivation,human iPS cells [2],has no influence
NC(=O)CC[C@H](N)C(=O)O [Gln],Sox17 positive cell ratio,human iPS cells [1]; [6],increased
NCC(=O)O [Gly],Sox17 positive cell ratio,human iPS cells [1]; [6],increased
"N[C@@H](CCS)C(=O)O [Hcy, homocysteine]",effect of reducing Oct3/4 positive cells owing to methionine deprivation,human iPS cells [2],the effect of reducing Oct3/4 positive cells is inhibited
same,effect of reducing Oct3/4 positive cells,human iPS cells [2],had not influence
"N[C@@H](Cc1c[nH]cn1)C(=O)O [His, histidine]",Oct3/4 positive cell ratio,human iPS cells [1]; [5],decreased
same,Oct3/4 positive cell ratio,human iPS cells [1]; [6],remarkably decreased
"CC[C@H](C)[C@H](N)C(=O)O [Ile, isoleucine]",Oct3/4 positive cell ratio,human iPS cells [1]; [5],decreased
same,Oct3/4 positive cell ratio,human iPS cells [1]; [6],remarkably decreased
"CC(C)C[C@H](N)C(=O)O [Leu, leucine]",Oct3/4 positive cell ratio,human iPS cells [1]; [5],decreased
same,Oct3/4 positive cell ratio,human iPS cells [1]; [6],remarkably decreased
same,Sox17 positive cell ratio,human iPS cells [1]; [6],increased
"NCCCC[C@H](N)C(=O)O [Lys, lysine]",Oct3/4 positive cell ratio,human iPS cells [1]; [5],decreased
same,Oct3/4 positive cell ratio,human iPS cells [1]; [6],remarkably decreased
"CSCC[C@H](N)C(=O)O [Met, methionine]",Oct3/4 positive cell ratio,human iPS cells [1]; [5],decreased
same,Oct3/4 positive cell ratio,human iPS cells [1]; [6],remarkably decreased
same,Sox17 positive cell ratio,human iPS cells [1]; [6],increased
same,AFP positive cells,human iPS cells [3]; [7],present uniformly
same,amount of remaining Oct3/4 positive cells,human iPS cells [3]; [7],small
same,number of AFP positive cells,human iPS cells [3]; [8],decrease in the number of AFP positive cells is not recognized
same,number of Oct3/4 positive cells,human iPS cells [3]; [8],increases slightly
same,number of Oct3/4 positive cells,human iPS cells [3]; [9],remarkable increase
same,number of Sox17 positive cells,human iPS cells [3]; [9],remarkable decrease
same,proportion of Oct3/4 positive cells on Day 20,"human iPS cells [3]; methionine added Day 8 to Day 10 at various concentrations up to 500 μM, then liver differentiation culture medium",increased depending on the methionine concentration
same,proportion of AFP positive cells,"human iPS cells [3]; methionine concentrations of 50 μM or more Day 8 to Day 10, Day 20, FIG. 7B",decreased
same,effect of reducing Oct3/4 positive cells owing to methionine deprivation,human iPS cells [2],the effect of reducing Oct3/4 positive cells is inhibited
same,effect of reducing Oct3/4 positive cells,human iPS cells [2],inhibited the effect of reducing Oct3/4 positive cells
"N[C@@H](Cc1ccccc1)C(=O)O [Phe, phenylalanine]",Oct3/4 positive cell ratio,human iPS cells [1]; [5],decreased
same,Oct3/4 positive cell ratio,human iPS cells [1]; [6],remarkably decreased
"Nc1ncnc2c1ncn2[C@@H]1O[C@H](CSCC[C@H](N)C(=O)O)[C@@H](O)[C@H]1O [SAH, S-adenosylhomocystein]",effect of reducing Oct3/4 positive cells owing to methionine deprivation,human iPS cells [2],the effect of reducing Oct3/4 positive cells is inhibited
same,effect of reducing Oct3/4 positive cells,human iPS cells [2],had not influence
"C[S+](CC[C@H](N)C(=O)O)C[C@H]1O[C@@H](n2cnc3c(N)ncnc32)[C@H](O)[C@@H]1O (stereo partly shown) [SAM, S-adenosylmethionine]",effect of reducing Oct3/4 positive cells owing to methionine deprivation,human iPS cells [2],the effect of reducing Oct3/4 positive cells is inhibited
same,effect of reducing Oct3/4 positive cells,human iPS cells [2],inhibited the effect of reducing Oct3/4 positive cells
N[C@@H](CO)C(=O)O [Ser],Sox17 positive cell ratio,human iPS cells [1]; [6],increased
"C[C@@H](O)[C@H](N)C(=O)O [Thr, threonine]",Oct3/4 positive cell ratio,human iPS cells [1]; [5],decreased
same,Oct3/4 positive cell ratio,human iPS cells [1]; [6],remarkably decreased
"N[C@@H](Cc1c[nH]c2ccccc12)C(=O)O [Trp, tryptophan]",Oct3/4 positive cell ratio,human iPS cells [1]; [5],decreased
same,Oct3/4 positive cell ratio,human iPS cells [1]; [6],remarkably decreased
"N[C@@H](Cc1ccc(O)cc1)C(=O)O [Tyr, tyrosine]",Oct3/4 positive cell ratio,human iPS cells [1]; [5],decreased
same,Oct3/4 positive cell ratio,human iPS cells [1]; [6],remarkably decreased
same,Sox17 positive cell ratio,human iPS cells [1]; [6],without change
"CC(C)[C@H](N)C(=O)O [Val, valine]",Oct3/4 positive cell ratio,human iPS cells [1]; [5],decreased
same,Oct3/4 positive cell ratio,human iPS cells [1]; [6],remarkably decreased
O=C(O)[C@@H]1CCCN1 [proline],AFP positive cells,human iPS cells [4]; [10],larger
same,Oct3/4 positive cells,human iPS cells [4]; [10],decreased
same,AFP and Oct3/4 positive cells,human iPS cells [4]; proline 10 mM,the same result as in the case of 1 mM addition
